pEC50: −log10 of the molar value.
These compounds were tested against T1, human GPR119 (Homo sapiens, UniProt Q8TDV5) (assay: AlphaScreen cAMP assay in Min-6/hGPR119 cells (activation of GPR119, intracellular cAMP)). Conditions: MIN6 cells stably transfected with human GPR119; cAMP by AlphaScreen after 45 minutes incubation at room temperature.
T1 construct: expression vector for human GPR119 cDNA (Acc. No. NP_848566); expressed in transfected cells
T1 sequence (Q8TDV5 1-335): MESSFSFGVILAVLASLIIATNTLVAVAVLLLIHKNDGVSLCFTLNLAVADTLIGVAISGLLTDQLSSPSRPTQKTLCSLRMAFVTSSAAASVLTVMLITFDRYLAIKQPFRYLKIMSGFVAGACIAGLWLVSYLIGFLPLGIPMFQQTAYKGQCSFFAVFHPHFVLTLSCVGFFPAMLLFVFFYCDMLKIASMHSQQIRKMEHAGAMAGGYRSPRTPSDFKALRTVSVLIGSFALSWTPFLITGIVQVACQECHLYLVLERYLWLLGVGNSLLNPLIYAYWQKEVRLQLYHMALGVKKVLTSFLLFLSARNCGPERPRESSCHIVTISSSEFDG
Type: cell-based
Method in brief: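 MIN6 cells stably expressing human GPR119, seeded 24 h before treatment; compounds applied 45 min at ~20 °C in Hepes-buffered saline pH 7.4 with 0.5 mM IBMX, 0.1% BSA, 1% DMSO final. Intracellular cAMP measured by AlphaScreen.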
In the case of `CC(C)(C)OC(=O)N1CCC([C@H]2Cc3cc(-c4ccc(S(C)(=O)=O)cn4)ccc3O2)CC1` [Example 72, (R)-4-[5-(5-Methanesulfonyl-pyridin-2-yl)-2,3-dihydro-benzofuran-2-yl]-piperidine-1-carboxylic acid tert-butyl ester], the pEC50 was 7.01. For `CC(C)(C)OC(=O)N1CCC([C@@H]2Cc3nc(-c4ccc(S(C)(=O)=O)cc4)ncc3O2)CC1` [Example 73, (S)-4-[2-(4-Methanesulfonyl-phenyl)-6,7-dihydro-furo[3,2-d]pyrimidin-6-yl]-piperidine-1-carboxylic acid tert-butyl ester], the pEC50 was 7.57. `CC(C)(C)OC(=O)N1CCC([C@H]2Cc3nc(-c4ccc(S(C)(=O)=O)cc4)ncc3O2)CC1` [Example 74, (R)-4-[2-(4-Methanesulfonyl-phenyl)-6,7-dihydro-furo[3,2-d]pyrimidin-6-yl]-piperidine-1-carboxylic acid tert-butyl ester] was tested, and the pEC50 was 6.66. `CC(C)(C)OC(=O)N1CCC(C2(C)Cc3cc(-c4ccc(S(C)(=O)=O)cc4)ncc3O2)CC1` (centres unmarked) [Example 77, 4-[5-(4-Methanesulfonyl-phenyl)-2-methyl-2,3-dihydro-furo[2,3-c]pyridin-2-yl]-piperidine-1-carboxylic acid tert-butyl ester] showed a pEC50 of 7.85. `CC(C)(C)OC(=O)N1CCC(C2(C)Cc3cc(C4=CCN(S(C)(=O)=O)CC4)ncc3O2)CC1` (centres unmarked) [Example 78, 4-[5-(1-Methanesulfonyl-1,2,3,6-tetrahydro-pyridin-4-yl)-2-methyl-2,3-dihydro-furo[2,3-c]pyridin-2-yl]-piperidine-1-carboxylic acid tert-butyl ester] gave a pEC50 of 7.82. `CC(C)(C)OC(=O)N1CCC(C2(C)Cc3cc(N4CCN(S(C)(=O)=O)CC4)ncc3O2)CC1` (centres unmarked) [Example 79, 4-[5-(4-Methanesulfonyl-piperazin-1-yl)-2-methyl-2,3-dihydro-furo[2,3-c]pyridin-2-yl]-piperidine-1-carboxylic acid tert-butyl ester] was tested, and the pEC50 was 7.40. For `CC(C)(C)OC(=O)N1CCC(C2(C)Cc3cc(-c4ccc(CS(C)(=O)=O)cc4)ncc3O2)CC1` (centres unmarked) [Example 80, 4-[5-(4-Methanesulfonylmethyl-phenyl)-2-methyl-2,3-dihydro-furo[2,3-c]pyridin-2-yl]-piperidine-1-carboxylic acid tert-butyl ester], the pEC50 was 7.62. For `CC(C)(C)OC(=O)N1CCC(C2(C)Cc3cc(C4CCN(S(C)(=O)=O)CC4)ncc3O2)CC1` (centres unmarked) [Example 81, 4-[5-(1-Methanesulfonyl-piperidin-4-yl)-2-methyl-2,3-dihydro-furo[2,3-c]pyridin-2-yl]-piperidine-1-carboxylic acid tert-butyl ester], the pEC50 was 7.28. For `CC(C)(C)OC(=O)N1CCC(C2(C)Cc3cc(-c4ccc(CS(C)(=O)=O)cc4F)ncc3O2)CC1` (centres unmarked) [Example 82], the pEC50 was 7.68. With `CC(C)(C)OC(=O)N1CCC([C@]2(C)Cc3cc(-c4ccc(S(C)(=O)=O)cc4)ncc3O2)CC1` [Example 83, (S)-4-[5-(4-Methanesulfonyl-phenyl)-2-methyl-2,3-dihydro-furo[2,3-c]pyridin-2-yl]-piperidine-1-carboxylic acid tert-butyl ester] the pEC50 was 8.40. `CC(C)(C)OC(=O)N1CCC([C@@]2(C)Cc3cc(-c4ccc(S(C)(=O)=O)cc4)ncc3O2)CC1` [Example 84, (R)-4-[5-(4-Methanesulfonyl-phenyl)-2-methyl-2,3-dihydro-furo[2,3-c]pyridin-2-yl]-piperidine-1-carboxylic acid tert-butyl ester] showed a pEC50 of 6.76. Work on `CC1(OC(=O)N2CCC([C@]3(C)Cc4cc(-c5ccc(S(C)(=O)=O)cc5)ncc4O3)CC2)CC1` [Example 85, (S)-4-[5-(4-Methanesulfonyl-phenyl)-2-methyl-2,3-dihydro-furo[2,3-c]pyridin-2-yl]-piperidine-1-carboxylic acid 1-methyl-cyclopropyl ester] yielded a pEC50 of 8.15. `CC(C)OC(=O)N1CCC([C@]2(C)Cc3cc(-c4ccc(S(C)(=O)=O)cc4)ncc3O2)CC1` [Example 86, (S)-4-[5-(4-Methanesulfonyl-phenyl)-2-methyl-2,3-dihydro-furo[2,3-c]pyridin-2-yl]-piperidine-1-carboxylic acid isopropyl ester] was tested, and the pEC50 was 7.96. `CC1(OC(=O)N2CCC([C@]3(C)Cc4cc(C5=CCN(S(C)(=O)=O)CC5)ncc4O3)CC2)CC1` [Example 88, (S)-4-[5-(1-Methanesulfonyl-1,2,3,6-tetrahydro-pyridin-4-yl)-2-methyl-2,3-dihydro-furo[2,3-c]pyridin-2-yl]-piperidine-1-carboxylic acid 1-methyl-cyclopropyl ester] was tested, and the pEC50 was 7.89. Work on `CC(C)OC(=O)N1CCC([C@]2(C)Cc3cc(C4=CCN(S(C)(=O)=O)CC4)ncc3O2)CC1` [Example 89, (S)-4-[5-(1-Methanesulfonyl-1,2,3,6-tetrahydro-pyridin-4-yl)-2-methyl-2,3-dihydro-furo[2,3-c]pyridin-2-yl]-piperidine-1-carboxylic acid isopropyl ester] yielded a pEC50 of 8.15. `CC(C)(C)OC(=O)N1CCC(C2Cc3cc(N4CCN(S(C)(=O)=O)CC4)ncc3O2)CC1` (centres unmarked) [Example 90, 4-[5-(4-Methanesulfonyl-piperazin-1-yl)-2,3-dihydro-furo[2,3-c]pyridin-2-yl]-piperidine-1-carboxylic acid tert-butyl ester] gave a pEC50 of 7.72. Compound `CC(C)(C)OC(=O)N1CCC(C2Cc3nc(N4CCN(S(C)(=O)=O)CC4)ncc3O2)CC1` (centres unmarked) [Example 91, 4-[2-(4-Methanesulfonyl-piperazin-1-yl)-6,7-dihydro-furo[3,2-d]pyrimidin-6-yl]-piperidine-1-carboxylic acid tert-butyl ester] has a pEC50 of 6.22. For `CC(C)(C)OC(=O)N1CCC(C2Cc3cc(C4=CCN(S(C)(=O)=O)CC4)ncc3O2)CC1` (centres unmarked) [Example 92, 4-[5-(1-Methanesulfonyl-1,2,3,6-tetrahydro-pyridin-4-yl)-2,3-dihydro-furo[2,3-c]pyridin-2-yl]-piperidine-1-carboxylic acid tert-butyl ester], the pEC50 was 7.92. Work on `CC(C)(C)OC(=O)N1CCC(C2Cc3cc(C4CCN(S(C)(=O)=O)CC4)ncc3O2)CC1` (centres unmarked) [Example 93, 4-[5-(1-Methanesulfonyl-piperidin-4-yl)-2,3-dihydro-furo[2,3-c]pyridin-2-yl]-piperidine-1-carboxylic acid tert-butyl ester] yielded a pEC50 of 7.49. `CC(C)(C)OC(=O)N1CCC(C2Cc3cc(C4=CCN(S(C)(=O)=O)CC4)ccc3O2)CC1` (centres unmarked) [Example 94, 4-[5-(1-Methanesulfonyl-1,2,3,6-tetrahydro-pyridin-4-yl)-2,3-dihydro-benzofuran-2-yl]-piperidine-1-carboxylic acid tert-butyl ester] showed a pEC50 of 8.15. Work on `CC(C)OC(=O)N1CCC(C2Cc3cc(C4=CCN(S(C)(=O)=O)CC4)ncc3O2)CC1` (centres unmarked) [Example 95, 4-[5-(1-Methanesulfonyl-1,2,3,6-tetrahydro-pyridin-4-yl)-2,3-dihydro-furo[2,3-c]pyridin-2-yl]-piperidine-1-carboxylic acid isopropyl ester] yielded a pEC50 of 7.77. With `CS(=O)(=O)N1CC=C(c2cc3c(cn2)OC(C2CCN(C(=O)OC4CCC4)CC2)C3)CC1` (centres unmarked) [Example 96, 4-[5-(1-Methanesulfonyl-1,2,3,6-tetrahydro-pyridin-4-yl)-2,3-dihydro-furo[2,3-c]pyridin-2-yl]-piperidine-1-carboxylic acid cyclobutyl ester] the pEC50 was 7.82. Work on `CC1(OC(=O)N2CCC(C3Cc4cc(C5=CCN(S(C)(=O)=O)CC5)ncc4O3)CC2)CC1` (centres unmarked) [Example 97, 4-[5-(1-Methanesulfonyl-1,2,3,6-tetrahydro-pyridin-4-yl)-2,3-dihydro-furo[2,3-c]pyridin-2-yl]-piperidine-1-carboxylic acid 1-methyl-cyclopropyl ester] yielded a pEC50 of 8.15. `CCS(=O)(=O)N1CCN(c2cc3c(cn2)OC(C2CCN(C(=O)OC(C)(C)C)CC2)C3)CC1` (centres unmarked) [Example 98] was tested, and the pEC50 was 7.82. For `CC(C)S(=O)(=O)N1CCN(c2cc3c(cn2)OC(C2CCN(C(=O)OC(C)(C)C)CC2)C3)CC1` (centres unmarked) [Example 99, 4-{5-[4-(Propane-2-sulfonyl)-piperazin-1-yl]-2,3-dihydro-furo[2,3-c]pyridin-2-yl}-piperidine-1-carboxylic acid tert-butyl ester], the pEC50 was 7.32. `CCCS(=O)(=O)N1CCN(c2cc3c(cn2)OC(C2CCN(C(=O)OC(C)(C)C)CC2)C3)CC1` (centres unmarked) [Example 100, 4-{5-[4-(Propane-1-sulfonyl)-piperazin-1-yl]-2,3-dihydro-furo[2,3-c]pyridin-2-yl}-piperidine-1-carboxylic acid ten-butyl ester] showed a pEC50 of 8.05. With `CC(C)(C)OC(=O)N1CCC(C2Cc3cc(N4CCN(S(=O)(=O)C5CC5)CC4)ncc3O2)CC1` (centres unmarked) [Example 101, 4-[5-(4-Cyclopropanesulfonyl-piperazin-1-yl)-2,3-dihydro-furo[2,3-c]pyridin-2-yl]-piperidine-1-carboxylic acid tert-butyl ester] the pEC50 was 7.64. `CN(C1CCN(c2cc3c(cn2)OC(C2CCN(C(=O)OC(C)(C)C)CC2)C3)CC1)S(C)(=O)=O` (centres unmarked) [Example 102, 4-{5-[4-(Methanesulfonyl-methyl-amino)-piperidin-1-yl]-2,3-dihydro-furo[2,3-c]pyridin-2-yl}-piperidine-1-carboxylic acid tert-butyl ester] gave a pEC50 of 6.20. In the case of `CC(C)OC(=O)N1CCC(C2Cc3cc(-c4cccc(C#N)c4)ccc3O2)CC1` (centres unmarked) [Example 103, 4-[5-(3-Cyano-phenyl)-2,3-dihydro-benzofuran-2-yl]-piperidine-1-carboxylic acid isopropyl ester], the pEC50 was 6.73.

From US8669271B2 (Boehringer Ingelheim International GmbH, priority 2010, dated 2014)
